Results as given in ChEMBL document CHEMBL5356934, “Antibacterial activities of anthraquinones: structure-activity relationships and action mechanisms” (RSC Med Chem, 2023).
Values after ≈ are worked out from the molar mass of the structure shown.

Tested on: Mycobacterium tuberculosis variant bovis
Assay: Antimycobacterial activity against Mycobacterium bovis assessed as reduction in bacterial growth
Format: functional

Structure (SMILES): Cc1cc(O)c2c(c1)C(=O)c1cccc(O)c1C2=O [CHRYSOPHANOL]
- MIC: 64 µg/mL (≈ 252 µM)
